Counter-ions that a name gives are not always drawn.
What follows are molecules tested against Recombinant Human (rh) DPP1 (Homo sapiens, UniProt P53634) (assay: Fluorescence Assay for Recombinant Human (rh) DPP1). Settings: rhDPP1, substrate H-Gly-Arg-AMC, pH5.0, 22° C., pre-incubated 30-60 min; read-out: DPP1 activity, pIC50 (converted).
Format: biochemical
Experimental: Fluorescence Assay for Recombinant Human (rh) DPP1
The activity of DPP1 was determined by measuring the enzymatic release of aminomethyl coumarin (AMC) from the peptide substrate (H-Gly-Arg-AMC), which leads to an increase in fluorescence intensity at λex=350 nm and λem=450 nm. The assay was carried out in black 384 well plates in a final volume of 50 μl at 22° C. The assay conditions contained the following: 25 mM piperazine buffer pH5.0; 50 mM NaCl, 5 mM DTT; 0.01% (v/v) Triton X-100; 100 μM H-Gly-Arg-AMC and rhDPP1 ([…]). […] A standard DPP1 inhibitor (vinyl sulfone, see below, or Example 24 from WO2009/074829) was used as a positive control in the assay. Routinely, inhibitors were pre-incubated with rhDPP1 for 30-60 min prior to the addition of the peptide substrate to start the reaction for a further 60 min at 22° C. After that the plates were immediately read in a fluorescence plate reader using the above emission and excitation wavelengths [modified from Kam, C M, Gotz, M G, Koot, G, McGuire, M J, Thiele, D L, Hudig, D & Powers, J C (2004). Arch Biochem Biophys, 427, 123-134 & McGuire, M J, Lipsky, P E & Thiele, D L (1992). Arch Biochem Biophys, 295, 280-288].

Sequence of Recombinant Human (rh) DPP1 (P53634 231-394 limits assumed): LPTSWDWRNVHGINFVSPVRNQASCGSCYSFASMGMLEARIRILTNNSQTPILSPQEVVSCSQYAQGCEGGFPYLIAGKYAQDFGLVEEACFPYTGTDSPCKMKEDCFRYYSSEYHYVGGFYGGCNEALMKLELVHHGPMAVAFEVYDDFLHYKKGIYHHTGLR
Sequence of Recombinant Human (rh) DPP1 (P53634 25-134 limits assumed): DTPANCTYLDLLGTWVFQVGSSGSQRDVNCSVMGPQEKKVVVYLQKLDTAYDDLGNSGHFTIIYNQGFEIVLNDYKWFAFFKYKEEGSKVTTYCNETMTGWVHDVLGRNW
Sequence of Recombinant Human (rh) DPP1 (P53634 395-463 limits assumed): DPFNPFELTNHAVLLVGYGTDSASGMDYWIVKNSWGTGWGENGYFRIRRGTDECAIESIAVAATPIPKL

| IC50 | SMILES |
| --- | --- |
| 5.01 nM | CN1Cc2cc(-c3ccc(C[C@@H](C#N)NC(=O)C4(N)CCOCC4)cc3)cnc2C1=O [Example 32, (S)-4-Amino-N-(1-cyano-2-(4-(6-methyl-7-oxo-6,7-dihydro-5H-pyrrolo[3,4-b]pyridin-3-yl)phenyl)ethyl)tetrahydro-2H-pyran-4-carboxamide] |
| 0.398 nM | N#C[C@H](Cc1ccc(-c2ccc3oc(=O)[nH]c3c2)cc1)NC(=O)C1(N)CCOCC1 [Example 33, (S)-4-Amino-N-(1-cyano-2-(4-(2-oxo-2,3-dihydrobenzo[d]oxazol-5-yl)phenyl)ethyl)tetrahydro-2H-pyran-4-carboxamide trifluoroacetatic acid salt] |
| 1.26 nM | N#C[C@H](Cc1ccc(-c2ccc3c(c2)CS(=O)(=O)C3)cc1)NC(=O)C1(N)CCOCC1 [Example 34, 4-Amino-N-{(1S)-1-cyano-2-[4-(2,2-dioxido-1,3-dihydro-2-benzothiophen-5-yl)phenyl]ethyl}tetrahydro-2H-pyran-4-carboxamide] |
